Tests used:
[1] = system: methicillin-resistant Staphylococcus aureus (MRSA); assay: Antibacterial activity, agar well diffusion method; format: cell-based; settings: 50 μg of each compound per well, 8-mm wells, read-out: Diameter of inhibition zone
Procedure: Methicillin-resistant Staphylococcus aureus (MRSA), extended spectrum beta-lactamase-producing Escherichia coli (ESBL-producing E. coli) and the agar well diffusion method were used to evaluate the antibacterial activity of the isolated compounds [29]. The strains were cultured in nutrient broth at 37 °C for 18 h and diluted with steriled 0.9% NaCl to obtain the 1.5 × 10^8 CFU/mL bacterial solution. Then, 100 μL of the bacterial solution was spread on Mueller–Hinton agar (MHA) plate on which 8-mm wells were created aseptically with tips. The isolated compounds were dissolved in dimethyl sulfoxide at the concentration of 1 mg/mL and 50 μL of each compound solution was applied in each well. The plates were incubated at 37 °C for 16–18 h and the diameters of the inhibtion zones were measured. Dimethyl sulfoxide and apramycin were used as controls in this experiment.

alpha-glucosidase [2] = target: T1, alpha-glucosidase (Saccharomyces cerevisiae, UniProt P53341); assay: Inhibitory type assay on alpha-glucosidase (Lineweaver–Burk plots); format: biochemical; settings: Vmax decreased while Km remained constant
T1 sequence (P53341 whole entry): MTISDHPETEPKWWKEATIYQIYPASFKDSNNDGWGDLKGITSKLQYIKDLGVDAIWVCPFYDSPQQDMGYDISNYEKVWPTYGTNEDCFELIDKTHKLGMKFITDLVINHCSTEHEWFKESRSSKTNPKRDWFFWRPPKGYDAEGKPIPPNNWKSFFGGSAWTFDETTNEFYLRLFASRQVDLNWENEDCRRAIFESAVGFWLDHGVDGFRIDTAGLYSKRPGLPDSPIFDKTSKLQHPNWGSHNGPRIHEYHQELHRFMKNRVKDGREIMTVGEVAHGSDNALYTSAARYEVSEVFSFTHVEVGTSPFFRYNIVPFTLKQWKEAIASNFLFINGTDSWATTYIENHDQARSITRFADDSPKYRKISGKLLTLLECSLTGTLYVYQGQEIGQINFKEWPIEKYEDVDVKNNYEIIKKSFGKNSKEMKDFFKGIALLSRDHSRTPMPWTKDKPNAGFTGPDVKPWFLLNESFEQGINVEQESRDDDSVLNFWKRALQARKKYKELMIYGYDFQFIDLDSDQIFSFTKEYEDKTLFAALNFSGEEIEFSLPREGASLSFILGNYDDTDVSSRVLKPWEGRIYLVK
Procedure: In order to examine the inhibition mechanism of compound 11, their activity was measured at the different concentration of pNPG.
Enzyme inhibition due to various concentrations of the 8 and 11 compounds were evaluated by monitoring the effects of different concentrations of the substrate. For Lineweaver–Burk double reciprocal plots 1/enzyme velocity (1/V) vs. 1/substrate concentration (1/[S]), the inhibition type was determined using various concentrations of pNPG (1 mM, 2 mM, and 4 mM) as a substrate in the presence of different concentrations of the test compounds (0; 4.96; 9.92 and 19.84 µM for 8 and 0; […]; 43.03 and 86.06 µM for 11). The experiments were carried out in 3 replicates. The mixtures were incubated at 37 °C and the optical density was measured at 405 nm every 1 min for 30 min with the Clariostar Labtech microplate reader (Ortenberg, Germany). Optimal concentrations of the tested compound were chosen based on the IC50 value. The inhibition constants were obtained graphically from secondary plots (Microsoft Excel 2010, Washington, WA, USA).

alpha-glucosidase [3] = target: T1, alpha-glucosidase; assay: Alpha-glucosidase inhibition assay (pNPG substrate); format: biochemical; settings: means ± standard errors of three independent experiments; read-out: Alpha-glucosidase inhibitory IC50
Procedure: The alpha-glucosidase (0.2 U/mL) and substrate (5.0 mM p-nitrophenyl-α-D-glucopyranoside) were dissolveed in 100 mM of pH 6.9 sodium phosphate buffer. The inhibitor (50 µL) was preincubated with alpha-glucosidase at 37 °C for 20 min, and then the substrate (40 µL) was added to the reaction mixture. The enzymatic reaction was carried out at 37 °C for 20 min and stopped by adding 0.2 M of Na2CO3 (130 μL). Enzymatic activity was quantified by measuring absorbance at 405 nm. All samples were analyzed in triplicate at five different concentrations around the IC50 values, and the mean values were retained. The inhibition percentage (%) was calculated by the following equation: Inhibition (%)=[1−(Asample/Acontrol)]×100. .

## COc1cc(O)c2c(=O)c(O)c(-c3ccc(OC)c(O)c3)oc2c1 [Compound 5, ombuin]
[1]
  zone of inhibition at 50 µg/disc: 15 mm

## COc1c(O)cc(-c2oc3c(Br)c(OC)c(Br)c(O)c3c(=O)c2OC)cc1Br [Compound 8, 6,8,5′-Tribromoayanin]
alpha-glucosidase [2]
  Inhibition type: noncompetitive

## COc1c(Br)c(O)c2c(=O)c(OC)c(-c3cc(Br)c(O)c(Br)c3)oc2c1Br [Compound 11, 6,8,3′,5′-Tetrabromokamatakenin]
alpha-glucosidase [2]
  Inhibition type: noncompetitive

## CN[C@@H]1[C@@H](O[C@H]2O[C@H](CO)[C@@H](N)[C@H](O)[C@H]2O)OC2C[C@@H](N)[C@@H](O[C@H]3[C@H](O)[C@@H](O)[C@H](N)C[C@@H]3N)OC2[C@@H]1O (stereo partly drawn) [apramycin, reference compound]
[1]
  zone of inhibition at 50 µg/disc: 24 mm

## isoorientin [Compound 15]
alpha-glucosidase [3]
  IC50: > 300 µM

## vitexin [Compound 16]
alpha-glucosidase [3]
  IC50: > 300 µM
